In brackets after ≈: the same amount, converted by molar mass. Each block holds one compound with its values, some of them ahead of it.
Experiments:
Experiment in all cases: ≥ marks a high value that may be exact or a test limit, other limits are often not marked, values filed in µg/mL are converted to µM
[1] = tested on: Staphylococcus aureus
[2] = tested on: Escherichia coli UB1005
[3] = tested on: Escherichia coli ATCC 25922
[4] = tested on: Acinetobacter baumannii
[5] = tested on: Pseudomonas aeruginosa
[6] = tested on: Escherichia coli
[7] = tested on: Staphylococcus aureus ATCC 25923
[8] = tested on: Salmonella enterica subsp. enterica serovar Typhimurium C77-31
[9] = tested on: Staphylococcus aureus ATCC 29213
[10] = tested on: Staphylococcus epidermidis ATCC 12228
[11] = tested on: Pseudomonas aeruginosa ATCC 9027
[12] = tested on: Klebsiella pneumoniae ATCC 700603
[13] = tested on: Bacillus subtilis ATCC 6633
[14] = tested on: Staphylococcus aureus ATCC 2592
[15] = tested on: Bacillus subtilis
[16] = tested on: Staphylococcus aureus ATCC 33591
[17] = tested on: Micrococcus luteus ATCC 9341
[18] = tested on: Candida albicans ATCC 2002

SMILES: CC(C)C[C@H](NC(=O)[C@H](CCCN=C(N)N)NC(=O)[C@H](Cc1c[nH]c2ccccc12)NC(=O)[C@H](CCCN=C(N)N)NC(=O)[C@@H](NC(=O)[C@H](CCCN=C(N)N)NC(=O)[C@H](Cc1c[nH]c2ccccc12)NC(=O)[C@H](CCCN=C(N)N)NC(=O)[C@H](CC(C)C)NC(=O)[C@H](CCCN=C(N)N)NC(=O)[C@@H](N)Cc1c[nH]c2ccccc12)[C@@H](C)O)C(=O)N[C@@H](CCCN=C(N)N)C(N)=O [WRLRWRTRWRLR]
- MIC [1]: 2 µM (≈ 3.68 µg/mL)
- MIC [2]: 4 µM (≈ 7.36 µg/mL)
- MIC [3]: 4 µM (≈ 7.36 µg/mL)
- MIC [4]: 4 µM (≈ 7.36 µg/mL)
- MIC [5]: 16 µM (≈ 29.4 µg/mL)
- MIC [6]: 2 µM (≈ 3.68 µg/mL)
- MIC [7]: 2 µM (≈ 3.68 µg/mL)
- MIC [8]: 4 µM (≈ 7.36 µg/mL)
- MIC [9]: 2 µM (≈ 3.68 µg/mL)
- MIC [10]: 2 µM (≈ 3.68 µg/mL)

SMILES: CC[C@H](C)[C@H](NC(=O)[C@H](C)N)C(=O)N[C@@H](CC(C)C)C(=O)N[C@@H](CCCN=C(N)N)C(=O)N[C@@H](CCCCN)C(=O)N[C@@H](C)C(=O)N[C@H](C(=O)N[C@@H](CCCN=C(N)N)C(=O)N[C@@H](CCCN=C(N)N)C(=O)N[C@@H](CC(C)C)C(=O)N[C@H](C(=O)N[C@@H](CCCCN)C(=O)N[C@@H](CC(C)C)C(=O)N[C@H](C(=O)N[C@H](C(N)=O)C(C)C)[C@@H](C)CC)C(C)C)[C@@H](C)O [AILRKATRRLVKLIV]
- MIC [11]: 20 µM (≈ 35 µg/mL)
- MIC [12]: > 25 µM
- MIC [3]: 20 µM (≈ 35 µg/mL)
- MIC [4]: 6.25 µM (≈ 10.9 µg/mL)
- MIC [7]: > 25 µM

SMILES: CC[C@H](C)[C@H](NC(=O)[C@H](CCCCN)NC(=O)[C@@H]1CCCN1C(=O)[C@H](CC(C)C)NC(=O)[C@@H](NC(=O)[C@H](CO)NC(=O)CNC(=O)[C@H](CC(C)C)NC(=O)[C@H](C)NC(=O)CNC(=O)[C@H](CC(C)C)NC(=O)[C@@H](NC(=O)[C@H](CC(C)C)NC(=O)[C@@H]1CCCN1C(=O)[C@H](Cc1ccccc1)NC(=O)[C@@H](N)Cc1ccccc1)C(C)C)[C@@H](C)CC)C(=O)N[C@@H](Cc1ccccc1)C(N)=O [FFPLVLGALGSILPKIF]
- MIC [13]: 5.46 µM (≈ 9.99 µg/mL)
- MIC [14]: 10.9 µM (≈ 20 µg/mL)

SMILES: CC[C@H](C)[C@H](N)C(=O)N[C@@H](CC(N)=O)C(=O)N[C@@H](Cc1c[nH]c2ccccc12)C(=O)N[C@@H](CO)C(=O)N[C@@H](CCCCN)C(=O)N[C@H](C(=O)N[C@@H](Cc1ccccc1)C(=O)N[C@@H](CCC(=O)O)C(=O)N[C@@H](CCCCN)C(=O)N[C@H](C(=O)N[C@@H](CCCCN)C(=O)N[C@@H](CC(N)=O)C(=O)N[C@@H](CC(C)C)C(=O)N[C@H](C(N)=O)C(C)C)C(C)C)[C@@H](C)CC [INWSKIFEKVKNLV]
- MIC [6]: 12.5 µM (≈ 21.5 µg/mL)
- MIC [15]: 17 µM (≈ 29.2 µg/mL)

SMILES: CC[C@H](C)[C@H](N)C(=O)N[C@@H](CC(C)C)C(=O)N1CCC[C@H]1C(=O)N[C@@H](Cc1c[nH]c2ccccc12)C(=O)N[C@@H](CCCCN)C(=O)N[C@@H](Cc1c[nH]c2ccccc12)C(=O)N1CCC[C@H]1C(=O)N[C@@H](Cc1c[nH]c2ccccc12)C(=O)N[C@@H](Cc1c[nH]c2ccccc12)C(=O)N1CCC[C@H]1C(=O)N[C@@H](Cc1c[nH]c2ccccc12)C(N)=O [ILPWKWPWWPW]
- MIC [17]: 0.8 µM (≈ 1.28 µg/mL)

SMILES: CC[C@H](C)[C@H](N)C(=O)N[C@@H](CC(C)C)C(=O)N1CCC[C@H]1C(=O)N[C@@H](Cc1c[nH]c2ccccc12)C(=O)N[C@@H](CCC(=O)O)C(=O)N[C@@H](Cc1c[nH]c2ccccc12)C(=O)N1CCC[C@H]1C(=O)N[C@@H](Cc1c[nH]c2ccccc12)C(=O)N[C@@H](Cc1c[nH]c2ccccc12)C(=O)N1CCC[C@H]1C(=O)N[C@@H](Cc1c[nH]c2ccccc12)C(=O)N[C@@H](CCC(=O)O)C(=O)N[C@@H](CCC(=O)O)C(N)=O [ILPWEWPWWPWEE]
- MIC [17]: ≥ 100 µM

SMILES: NC(=O)[C@H](CCCN=C(N)N)NC(=O)[C@H](CCCN=C(N)N)NC(=O)[C@H](Cc1c[nH]c2ccccc12)NC(=O)[C@@H]1CCCN1C(=O)[C@H](Cc1c[nH]c2ccccc12)NC(=O)[C@H](Cc1c[nH]c2ccccc12)NC(=O)[C@@H]1CCCN1C(=O)[C@@H](N)Cc1c[nH]c2ccccc12 [WPWWPWRR]
- MIC [17]: 1.6 µM (≈ 2.03 µg/mL)

SMILES: CC(C)[C@H](NC(=O)[C@H](CCCN=C(N)N)NC(=O)[C@H](Cc1c[nH]c2ccccc12)NC(=O)[C@H](CCCN=C(N)N)NC(=O)[C@@H](NC(=O)[C@H](CCCCN)NC(=O)[C@H](Cc1c[nH]c2ccccc12)NC(=O)[C@H](CCCN=C(N)N)NC(=O)[C@@H](NC(=O)[C@H](CCCN=C(N)N)NC(=O)[C@@H](N)Cc1c[nH]c2ccccc12)C(C)C)C(C)C)C(=O)N[C@@H](CCCCN)C(N)=O [WRVRWKVRWRVK]
- MIC [1]: 2 µM (≈ 3.51 µg/mL)
- MIC [2]: 2 µM (≈ 3.51 µg/mL)
- MIC [3]: 4 µM (≈ 7.02 µg/mL)
- MIC [4]: 2.83 µM (≈ 4.96 µg/mL)
- MIC [5]: 4 µM (≈ 7.02 µg/mL)
- MIC [6]: 1 µM (≈ 1.75 µg/mL)
- MIC [7]: 2 µM (≈ 3.51 µg/mL)
- MIC [8]: 2 µM (≈ 3.51 µg/mL)
- MIC [9]: 1 µM (≈ 1.75 µg/mL)
- MIC [10]: 2 µM (≈ 3.51 µg/mL)

SMILES: CC[C@H](C)[C@H](N)C(=O)N[C@@H](CC(C)C)C(=O)N1CCC[C@H]1C(=O)N[C@@H](Cc1c[nH]c2ccccc12)C(=O)N[C@@H](CC(=O)O)C(=O)N[C@@H](Cc1c[nH]c2ccccc12)C(=O)N1CCC[C@H]1C(=O)N[C@@H](Cc1c[nH]c2ccccc12)C(=O)N[C@@H](Cc1c[nH]c2ccccc12)C(=O)N1CCC[C@H]1C(=O)N[C@@H](Cc1c[nH]c2ccccc12)C(=O)N[C@@H](CC(=O)O)C(=O)N[C@@H](CC(=O)O)C(N)=O [ILPWDWPWWPWDD]
- MIC [17]: ≥ 100 µM

Other lines, results leading:

- MIC [6]: 25 µM (≈ 47.1 µg/mL)
- MIC [15]: 30 µM (≈ 56.5 µg/mL)
SMILES: CC[C@H](C)[C@H](NC(=O)[C@H](CO)NC(=O)[C@H](C)NC(=O)[C@@H](NC(=O)[C@H](CCCCN)NC(=O)[C@H](CCCCN)NC(=O)[C@H](Cc1c[nH]c2ccccc12)NC(=O)[C@H](CC(N)=O)NC(=O)[C@@H](N)CO)[C@@H](C)CC)C(=O)NCC(=O)N[C@@H](CCCCN)C(=O)N[C@@H](CCC(=O)O)C(=O)N[C@H](C(=O)N[C@@H](CC(C)C)C(=O)N[C@@H](CCCCN)C(=O)N[C@@H](C)C(=O)N[C@@H](CC(C)C)C(N)=O)C(C)C [SNWKKIASIGKEVLKAL]

- MIC [16]: ≥ 256 µM
- MIC [3]: 256 µM (≈ 459 µg/mL)
SMILES: CC[C@H](C)[C@H](NC(=O)[C@@H](N)CCCCN)C(=O)N[C@@H](Cc1c[nH]c2ccccc12)C(=O)N[C@@H](Cc1ccccc1)C(=O)N[C@@H](CCC(N)=O)C(=O)N[C@@H](CC(N)=O)C(=O)N[C@@H](CCCCN)C(=O)N[C@@H](CCCCN)C(=O)N[C@@H](CCSC)C(=O)N[C@@H](CCCCN)C(=O)N[C@@H](Cc1c[nH]c2ccccc12)C(=O)N[C@@H](CCCCN)C(=O)N[C@@H](CCCCN)C(N)=O [KIWFQNKKMKWKK]

- MIC [18]: 20.4 µM (≈ 50 µg/mL)
- MIC [3]: 20.4 µM (≈ 50 µg/mL)
- MIC [14]: 2.57 µM (≈ 6.3 µg/mL)
SMILES: CC[C@H](C)[C@H](NC(=O)CNC(=O)CNC(=O)[C@H](C)NC(=O)[C@H](CCCCN)NC(=O)[C@H](C)N)C(=O)NCC(=O)NCC(=O)N[C@@H](Cc1cnc[nH]1)C(=O)N[C@H](C(=O)N[C@H](C(=O)NCC(=O)N[C@@H](CCC(N)=O)C(=O)N[C@H](C(=O)N[C@H](C(=O)NCC(=O)N[C@H](C(=O)N[C@@H](CCCN=C(N)N)C(=O)N[C@H](C(=O)N[C@@H](CCCN=C(N)N)C(=O)NCC(=O)N[C@@H](CC(C)C)C(=O)NCC(=O)NCC(=O)N[C@@H](CC(N)=O)C(=O)N[C@H](C(=O)O)C(C)C)[C@@H](C)CC)C(C)C)C(C)C)[C@@H](C)CC)[C@@H](C)CC)C(C)C [AKAGGIGGHVIGQIVGVRIRGLGGNV]

- MIC [15]: 0.5 µM (≈ 3.17 µg/mL)
SMILES: CC[C@H](C)[C@@H]1NC(=O)[C@@H]2CSSC[C@@H]3NC(=O)[C@H](Cc4ccccc4)NC(=O)[C@H](CO)NC(=O)[C@H](CO)NC(=O)[C@H](C(C)C)NC(=O)[C@H](C(C)C)NC(=O)[C@@H]4CCCN4C(=O)[C@@H](NC(=O)[C@H](CCSC)NC(=O)[C@H](Cc4ccc(O)cc4)NC(=O)[C@H](CCC(=O)O)NC(=O)[C@H](CO)NC(=O)[C@H](CCCCN)NC(=O)[C@H](CC(N)=O)NC(=O)[C@H](CC(C)C)NC(=O)[C@@H](NC(=O)[C@H](CCC(=O)O)NC(=O)[C@H](CCCCN)NC(=O)[C@@H](NC(=O)[C@H](CCCCN)NC(=O)[C@H](CC(=O)O)NC(=O)[C@@H](NC(=O)[C@H](C)NC(=O)[C@H](CCC(N)=O)NC(=O)[C@H](CC(N)=O)NC(=O)[C@H](CC(C)C)NC(=O)[C@H](CCCCN)NC(=O)[C@H](CCCCN)NC(=O)[C@H](CCCCN)NC(=O)[C@H](CC(C)C)NC(=O)[C@H](CCCCN)NC(=O)[C@H](CCC(N)=O)NC(=O)CNC(=O)[C@@H](NC(=O)[C@@H](NC(=O)[C@H](CO)NC(=O)[C@@H](N)CCCCN)[C@@H](C)O)C(C)C)C(C)C)C(C)C)C(C)C)CSSC[C@H](NC(=O)[C@H](CCC(N)=O)NC(=O)CNC(=O)[C@H](CO)NC(=O)[C@H](CCCCN)NC(=O)CNC(=O)[C@H](CC(C)C)NC(=O)[C@H](CCCN=C(N)N)NC(=O)[C@H](C)NC(=O)[C@H](CSSC[C@@H](C(=O)O)NC1=O)NC(=O)[C@H](Cc1cnc[nH]1)NC(=O)[C@H](CCC(N)=O)NC(=O)[C@H](CCCCN)NC3=O)C(=O)N[C@@H](CC(=O)O)C(=O)N[C@@H](CC(C)C)C(=O)N[C@@H](CC(C)C)C(=O)N[C@@H](CCC(=O)O)C(=O)N2 [KSTVGQKLKKKLNQAVDKVKEVLNKSEYMCPVVSSFCKQHCARLGKSGQCDLLECIC]
